From publication PMC3269340, “Pharmacokinetics of memantine in rats and mice” (PLoS Currents, 2012)

What was measured:
human PEPT1 = molecular target: T1, human PEPT1 (Homo sapiens, UniProt P46059); test: Indirect uptake transporter assay, PEPT1; type: in vitro ADME
T1 sequence (P46059 1-708): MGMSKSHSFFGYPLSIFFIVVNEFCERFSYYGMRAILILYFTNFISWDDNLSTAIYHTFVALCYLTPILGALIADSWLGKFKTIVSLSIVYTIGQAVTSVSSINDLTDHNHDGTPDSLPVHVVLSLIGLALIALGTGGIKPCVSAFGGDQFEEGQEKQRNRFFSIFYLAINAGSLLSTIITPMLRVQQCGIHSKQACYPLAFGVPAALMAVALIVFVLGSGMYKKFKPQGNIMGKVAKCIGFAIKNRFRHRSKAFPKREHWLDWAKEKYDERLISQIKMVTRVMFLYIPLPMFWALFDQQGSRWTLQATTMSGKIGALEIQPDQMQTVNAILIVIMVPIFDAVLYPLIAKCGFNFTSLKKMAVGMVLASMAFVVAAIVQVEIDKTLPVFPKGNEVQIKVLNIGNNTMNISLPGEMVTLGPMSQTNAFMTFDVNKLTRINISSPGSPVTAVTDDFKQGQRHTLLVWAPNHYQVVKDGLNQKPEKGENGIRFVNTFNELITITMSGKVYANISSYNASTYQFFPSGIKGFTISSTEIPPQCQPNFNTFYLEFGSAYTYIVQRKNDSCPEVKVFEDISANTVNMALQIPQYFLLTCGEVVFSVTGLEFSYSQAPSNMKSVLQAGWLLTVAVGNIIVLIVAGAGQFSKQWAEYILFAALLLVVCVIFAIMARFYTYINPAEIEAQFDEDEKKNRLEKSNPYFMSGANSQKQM
Text: (§1) To determine whether memantine is an inhibitor of the human OATP2B1 (OATP-B), OCT1, OCT2, OAT3, PEPT1, PEPT2 uptake transporters. The standard uptake transporter assay is an indirect, inhibitory-type screening assay, performed with cold test article, which in this case was memantine. It provides information on any interaction (substrate or inhibitor) between selected uptake transporters and memantine that would affect the transport of the reporter compound. […] A radiolabeled reporter substrate is transported into the cells transfected with the selected human uptake transporter, and the inhibitory effect of memantine on the transport of this reporter substrate is measured. Values are presented on a relative scale; 100% defined as transport in the presence of the solvent and without memantine (no inhibition), and 0% defined as transport detected without transporter activity. IC50 is defined as the concentration required to inhibit the transport of the reporter substrate by 50%.
(§2) The uptake transporter assay was carried out under the conditions described in the table below, with either CHO cells or MDCKII cells stably expressing the respective uptake transporter.
(§3) Duplicate incubations of memantine (0 or DMSO control, 0.41, 1.2, 3.7, 11, 33, 100 and 300 µM) were conducted per concentration on transfected and in parental cells. A reference inhibitor (positive control, duplicate) was incubated in transfected cells.
(§4) CHO cells were cultured in a 1:1 mixture of Dubelcco’s Modified Eagle’s Medium (DMEM, Lonza, Allendale, NJ) and Ham's F-12 (F-12, Lonza, Allendale, NJ) and MDCKII cells in DMEM at 37°C in an atmosphere of 95:5 air:CO2. […]
(§5) After the experiment cells were rinsed with 2 x 100µl of Krebs-Henseleit buffer and lysed with 50 µl of 0.1M NaOH. ^3H-estrone-3-sulfate, ^14C-TEA, ^14C-metformin and ^3H-Gly-Sar transport was determined by total radioactivity by transferring an aliquot (35µl) from each well to a vial containing liquid scintillant for analysis.

human OAT3 = molecular target: T2, human OAT3 (Homo sapiens, UniProt Q8TCC7); test: Indirect uptake transporter assay, OAT3; type: in vitro ADME; set-up: key to Maximal Inhibition: ND: Not Determined (< 50% inhibition); NDe: Not Decisive (Activation or inhibition > 25% of the baseline but no trend observed); NIO: No Interaction Observed (< 20% inhibition)
T2 construct: expressed in transfected cells
T2 sequence (Q8TCC7 1-542): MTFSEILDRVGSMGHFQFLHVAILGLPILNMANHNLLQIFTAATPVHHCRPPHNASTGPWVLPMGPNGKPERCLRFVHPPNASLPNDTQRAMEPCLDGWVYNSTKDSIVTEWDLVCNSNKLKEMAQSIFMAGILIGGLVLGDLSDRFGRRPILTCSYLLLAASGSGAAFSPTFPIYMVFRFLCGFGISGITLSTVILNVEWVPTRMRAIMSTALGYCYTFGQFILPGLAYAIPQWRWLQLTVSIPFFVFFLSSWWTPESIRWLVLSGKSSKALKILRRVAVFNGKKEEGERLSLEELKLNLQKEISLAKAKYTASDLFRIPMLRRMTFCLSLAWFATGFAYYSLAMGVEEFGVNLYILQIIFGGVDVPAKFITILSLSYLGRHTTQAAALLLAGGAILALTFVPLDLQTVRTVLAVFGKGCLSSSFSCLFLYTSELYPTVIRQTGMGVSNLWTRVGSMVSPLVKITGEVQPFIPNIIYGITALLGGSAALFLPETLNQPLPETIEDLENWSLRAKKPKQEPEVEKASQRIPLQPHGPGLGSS
Text: as §1, §2, §3, §4, §5

## CC12CC3CC(C)(C1)CC(N)(C3)C2 [memantine]
Human PEPT1; PEPT1, up to 300 µM
  Maximal Inhibition: ~62%
Human PEPT1; PEPT1-mediated glycylsarcosine transport
  IC50: 280 µM
Human PEPT1; PEPT1, probe printed in Table 5: E3S (1 μM), methods and text: Gly-Sar
  IC50: 281 µM
Human OAT3
  interaction with OAT3 mediated estrone-3-sulfate transport: did not interact
Human OAT3; OAT3, up to 300 µM
  Maximal Inhibition: NDe
Human OAT3; OAT3, probe printed in Table 5: Metformin (2µM), methods and text: E3S
  IC50: ND (Not Determined (< 50% inhibition))
